Laboratory results from patent US11312711B2, “Morpholine derivative” (Hoffmann-La Roche Inc., priority 2016, dated 2022).
Like-named read-outs stand apart in the source and are kept apart here.

Assays:
human TAAR1 = human TAAR1 (Homo sapiens (Human), UniProt Q96RJ0); experiment: cAMP functional assay in HEK293 cells expressing human TAAR1; assay type: cell-based; conditions: for EC50: cAMP, HEK293 cells expressing human TAAR1, read-out: hTAAR1 EC50
Description: The Expand High Fidelity PCR System (Roche Diagnostics) was used with 1.5 mM Mg^2+ and purified PCR products were cloned into pCR2.1-TOPO cloning vector (Invitrogen) following the instructions of the manufacturer. PCR products were subcloned into the pIRESneo2 vector (BD Clontech, Palo Alto, Calif.), and expression vectors were sequence verified before introduction in cell lines.
HEK293 cells (ATCC #CRL-1573) were cultured essentially as described by Lindemann et al. (2005). For the generation of stably transfected cell lines HEK293 cells were transfected with the pIRESneo2 expression plasmids containing the TAAR coding sequences (described above) with Lipofectamine 2000 (Invitrogen) according to the instructions of the manufacturer, and 24 hrs post transfection the culture medium was supplemented with 1 mg/ml G418 (Sigma, Buchs, Switzerland). After a culture period of about 10 d clones were isolated, expanded and tested for responsiveness to trace amines (all compounds purchased from Sigma) with the cAMP Biotrak Enzyme immunoassay (EIA) System (Amersham) following the non-acetylation EIA procedure provided by the manufacturer.
cAMP measurements were performed as described previously (Revel et al., Proc. Natl. Acad. Sci. USA 2011, 108, 8485-8490). In brief, cells that expressed human TAAR1 were plated on 96-well plates (BIOCOAT 6640; Becton Dickinson, Allschwil, Switzerland) and incubated for 20 h at 37° C. Prior to stimulation of the cells with a broad concentration range of agonists for 30 min at 37° C., the cells were washed with PBS and preincubated with PBS that contained 1 mM 3-isobutyl-1-methylxanthine for 10 min at 37° C. and 5% CO2. Stimulation with 0.2% DMSO was set as the basal level, and the effect of 30 μM β-PEA was set as the maximal response. […] Finally, the plates were read with a luminometer (1420 Multilabel counter; PerkinElmer, Schwerzenbach, Switzerland), and the amount of cAMP was calculated. […]

hERG potassium channels = hERG potassium channels (Homo sapiens (Human), UniProt Q12809); experiment: Whole-cell patch-clamp on hERG potassium channels in stably transfected CHO cells; assay type: cell-based
Description: The whole-cell patch-clamp technique was used to investigate the effects of the test items on hERG (human-ether-a-go-go related gene) potassium channels in stably transfected CHO cells near physiological temperature (36±1° C.). The effects of compounds on hERG K^+-current parameters were evaluated at 4 concentrations (0.3-3-30-300 μM) in at least 3 CHO cells stably expressing the hERG channel. For electrophysiological measurements cells were seeded onto 35 mm sterile culture dishes containing 2 ml culture medium without Hygromycin B. Cells were cultivated at a density that enabled single cells (without visible connections to neighbouring cells) to be measured. Cells were incubated at 37° C. in a humidified atmosphere with 5% CO2 (rel. humidity about 95%). The cells were continuously maintained in and passaged in sterile culture flasks containing nutrient mixture F-12 (DMEM/F-12 with L-Glutamine) supplemented with 10% foetal bovine serum and 10% penicillin/streptomycin solution. […] The 35 mm culture dishes upon which cells were seeded at a density allowing single cells to be recorded were placed on the dish holder of the microscope and continuously perfused (at approximately 1 ml/min) with the bath solution (sodium chloride 150 mM, potassium chloride 4 mM, calcium chloride 1.2 mM, magnesium chloride 1 mM, HEPES 10 mM, pH (NaOH) 7.4) at near physiological temperature (36±1° C.). After formation of a Gigaohm seal between the patch electrodes and individual hERG stably transfected CHO cells (pipette resistance range: 2.0 MΩ-7.0 MΩ; seal resistance range: >1 GΩ) the cell membrane across the pipette tip was ruptured to assure electrical access to the cell interior (whole-cell patch-configuration). In case the quality of the seal was poor, the process of seal formation was repeated with a different cell and a new pipette. […] This voltage protocol was run at least 10 times at intervals of 10 s. If current density was judged to be too low for measurement, another cell was recorded. […] During wash-in of the test item the voltage protocol indicated above was run continuously again at 10 s intervals until the steady-state level of block was reached. The four test item concentrations of the compound were applied sequentially to 3 cells in a cumulative manner. […] Based on the IC50 value the IC20 was estimated. Each concentration of the test item was analyzed in three experiments (n=3).

human DAT = human DAT (Homo sapiens (Human), UniProt Q01959); experiment: Binding to dopamine transporter (DAT) in vitro, [3H]-WIN35,428 SPA
Description: Binding to dopamine transporter (DAT) in vitro. Human embryonic kidney (HEK) 293 cells (Invitrogen, Zug, Switzerland) stably transfected with human DAT were cultured. The cells were collected and washed three times with phosphate-buffered saline (PBS). The pellets were frozen at −80° C. The pellets were then resuspended in 400 ml of 20 mM HEPES-NaOH, pH 7.4, that contained 10 mM EDTA at 4° C. […] Aliquots of the membrane stocks were frozen at −80° C. All assays were performed at least three times. The test compounds were diluted in […] of binding buffer (252 mM NaCl, 5.4 mM KCl, 20 mM Na2HPO4, 3.52 mM KH2PO4, pH 7.4) and 10 point dilution curves were made and transferred to 96-well white polystyrene assay plates (Sigma-Aldrich, Buchs, Switzerland). […] Twenty microliters of binding buffer alone in the assay plate defined the total binding, whereas binding in the presence of 10 μM indatraline defined nonspecific binding. Frozen DAT membrane stocks were thawed and resuspended to a concentration of approximately 0.04 mg protein/ml binding buffer (1:1 diluted in H2O) using a polytron tissue homogenizer. The membrane homogenates (40 μg/ml) were then lightly mixed for 5-30 min with polyvinyl toluene […] wheat germ agglutinin-coated scintillation proximity assay (WGASPA; Amersham Biosciences) beads at 7.7 mg beads/ml homogenate. One hundred thirty microliters of the membrane/bead mixture were added to each well of the assay plate that contained radioligand and test compounds (final volume in each well, 200 μl) to start the assay, which was incubated for approximately 2 h at room temperature with agitation. The assay plates were then counted in the PVT SPA counting mode of a Packard Topcount. […] Non-linear regression was used to fit the data to sigmoid curves and determine IC50 values for binding and uptake. Ki values for binding and uptake were calculated using the following Cheng-Prusoff equation: Ki=IC50/(1+[S]/Km).

mutant DAT = mutant DAT (Mus musculus (Mouse), UniProt Q61327, A109V/F105C/L104V); conditions: cocaine-insensitive DAT; cited from earlier work

hERG potassium channels, sequence (Q12809 whole entry): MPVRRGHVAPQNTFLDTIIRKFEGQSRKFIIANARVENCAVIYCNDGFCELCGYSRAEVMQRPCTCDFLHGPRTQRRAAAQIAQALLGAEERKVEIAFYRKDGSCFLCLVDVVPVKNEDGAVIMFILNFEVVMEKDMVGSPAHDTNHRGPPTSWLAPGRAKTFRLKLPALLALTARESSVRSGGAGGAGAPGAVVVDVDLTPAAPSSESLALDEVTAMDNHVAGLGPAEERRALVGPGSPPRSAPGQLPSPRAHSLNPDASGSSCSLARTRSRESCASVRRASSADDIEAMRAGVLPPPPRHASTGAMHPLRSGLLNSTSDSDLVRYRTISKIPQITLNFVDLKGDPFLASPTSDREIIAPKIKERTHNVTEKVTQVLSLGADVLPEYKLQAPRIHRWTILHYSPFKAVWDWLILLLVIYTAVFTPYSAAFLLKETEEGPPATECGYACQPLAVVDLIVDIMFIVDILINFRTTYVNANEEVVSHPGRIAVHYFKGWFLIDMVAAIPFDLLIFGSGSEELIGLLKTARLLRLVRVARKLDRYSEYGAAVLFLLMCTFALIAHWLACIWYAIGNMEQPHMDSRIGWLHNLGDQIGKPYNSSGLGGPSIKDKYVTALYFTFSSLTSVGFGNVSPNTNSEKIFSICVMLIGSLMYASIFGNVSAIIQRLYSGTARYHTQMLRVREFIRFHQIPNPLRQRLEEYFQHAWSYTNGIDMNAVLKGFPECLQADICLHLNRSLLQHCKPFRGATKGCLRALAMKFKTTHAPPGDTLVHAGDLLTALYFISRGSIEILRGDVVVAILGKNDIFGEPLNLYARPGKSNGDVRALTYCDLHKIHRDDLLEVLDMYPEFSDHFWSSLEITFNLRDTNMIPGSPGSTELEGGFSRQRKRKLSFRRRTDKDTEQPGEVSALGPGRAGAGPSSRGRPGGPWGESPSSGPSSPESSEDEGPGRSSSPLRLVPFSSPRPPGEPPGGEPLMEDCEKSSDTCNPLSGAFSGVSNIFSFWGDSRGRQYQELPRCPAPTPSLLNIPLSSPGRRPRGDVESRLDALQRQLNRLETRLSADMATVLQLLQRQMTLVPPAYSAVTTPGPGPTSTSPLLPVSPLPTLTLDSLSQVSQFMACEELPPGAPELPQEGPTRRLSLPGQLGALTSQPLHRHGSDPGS
human DAT, sequence (Q01959 whole entry): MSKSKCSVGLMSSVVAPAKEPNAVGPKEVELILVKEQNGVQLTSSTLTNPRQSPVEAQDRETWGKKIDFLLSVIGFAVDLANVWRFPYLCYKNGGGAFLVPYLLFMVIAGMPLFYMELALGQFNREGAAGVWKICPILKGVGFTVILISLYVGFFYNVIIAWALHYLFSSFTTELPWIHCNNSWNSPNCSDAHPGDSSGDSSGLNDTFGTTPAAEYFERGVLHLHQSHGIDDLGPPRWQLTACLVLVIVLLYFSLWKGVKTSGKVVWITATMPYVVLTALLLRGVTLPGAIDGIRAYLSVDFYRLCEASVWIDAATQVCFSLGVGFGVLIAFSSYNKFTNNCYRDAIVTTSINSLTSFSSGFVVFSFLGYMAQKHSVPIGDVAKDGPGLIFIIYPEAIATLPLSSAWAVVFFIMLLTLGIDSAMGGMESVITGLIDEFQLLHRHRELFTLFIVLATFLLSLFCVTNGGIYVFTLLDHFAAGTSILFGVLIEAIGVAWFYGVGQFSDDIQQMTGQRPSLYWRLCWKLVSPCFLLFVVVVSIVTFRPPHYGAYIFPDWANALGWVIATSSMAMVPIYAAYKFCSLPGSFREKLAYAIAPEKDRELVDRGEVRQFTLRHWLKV
human TAAR1, sequence (Q96RJ0 whole entry): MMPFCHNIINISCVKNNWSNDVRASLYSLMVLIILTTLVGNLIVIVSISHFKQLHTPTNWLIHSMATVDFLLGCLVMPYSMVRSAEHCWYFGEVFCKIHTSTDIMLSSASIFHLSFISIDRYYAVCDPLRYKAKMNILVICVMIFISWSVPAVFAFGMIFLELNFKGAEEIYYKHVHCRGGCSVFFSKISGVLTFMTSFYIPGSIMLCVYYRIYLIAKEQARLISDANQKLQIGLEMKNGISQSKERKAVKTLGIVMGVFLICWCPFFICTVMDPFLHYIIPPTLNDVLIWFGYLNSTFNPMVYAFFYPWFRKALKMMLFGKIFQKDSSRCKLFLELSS

Molecule | hTAAR1 efficacy (human TAAR1; % agonist activity, β-phenylethylamine = 100% agonism) | EC50 (human TAAR1; listed as Comparative example 12) | EC50 (human TAAR1) | Ratio hERG IC20/hTAAR1 EC50 (hERG potassium channels) | IC20 (hERG potassium channels; estimated based on the IC50 value) | hERG selectivity ratio versus hTAAR1 EC50 (hERG potassium channels; hERG IC20 versus hTAAR1 EC50) | IC50 (hERG potassium channels; patch-clamp, CHO cells, 36±1° C.) | Ratio DAT Ki/hTAAR1 EC50 (human DAT) | DAT selectivity ratio versus hTAAR1 EC50 (human DAT; DAT Ki versus hTAAR1 EC50) | Ki (human DAT; [3H]-WIN35,428 radioligand) | lower affinity of mutant DAT for cocaine relative to wild-type DAT (mutant DAT)
5-Chloro-N-[4-[(2S)-morpholin-2-yl]phenyl]pyridine-2-carboxamide [Example 12] | 40% | 212 nM | 212 nM | 15 | 3210 nM | 15 fold | 14300 nM | 8 | 8 fold | 1780 nM | 
COC(=O)[C@H]1[C@@H](OC(=O)c2ccccc2)C[C@@H]2CC[C@H]1N2C [cocaine] |  |  |  |  |  |  |  |  |  |  | 89 fold
